Laboratory results as given in US20240109893A1, “PREPARATION AND APPLICATION METHOD OF HETEROCYCLIC COMPOUNDS AS KRAS INHIBITOR” (SHANGHAI KECHOW PHARMA, INC., priority 2020, published 2024).

Experiments:
H358 cells = experiment: Cell activity experiment: activity test of H358 cells (MTT, 5 days); assay type: cell-based; conditions: 5 days incubation, absorbance 492 nm
Procedure, shortened: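 H358 cells seeded 90 μL at 55555 cells/mL, grown 24 h, then exposed to 3-fold serial compound dilutions (final top 10000 nM, 0.5% DMSO) in triplicate for 5 days at 37° C., 5% CO2. Viability by MTT (4 h), formazan dissolved in DMSO, absorbance at 492 nm.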

KRAS G12C-GDP = KRAS G12C-GDP (Homo sapiens (Human), UniProt P01116, G12C); experiment: KRAS G12C-GDP exchange test (SOS/cRAF/GTP, HTRF); assay type: biochemical; conditions: 1 h premix with compound, 2 h reaction with SOS, cRAF, GTP
Description: 2. A mixture of SOS (Pharmaron, ZZY-20190823), cRAF (Pharmaron, ZZY-20190823), GTP (Sigma, A6885-100MG), MAb Anti 6HIS-d2/MAb Anti GST-Eu (Cisbio, 61HISDLB/61GSTKLB) was added for a catalyzed reaction for 2 h.
3. The fluorescence signals of the emitted light at 615 nm and 665 nm under 320 nm excitation light were read by Biotek Microplate Reader (Synergy4).
4. The IC50 (median inhibitory concentration) of the compound was obtained by the following non-linear fitting formula: Y=Bottom+(Top−Bottom)/(1+10^((Log IC50−X)*Hill Slope)), and the data were analyzed by Graphpad 6-0 software.

Compound	IC50 (H358 cells)	IC50 (KRAS G12C-GDP)	IC50 (H358 cells; Homo sapiens, NCI-H358, 120 h)
2-((S)-1-acryloyl-4-(6-fluoro-7-(8-chloro-7- fluoronaphthalen-1-yl)-2-(((S)-1-methylpyrrolidin-2- yl))methoxy)quinazolin-4-yl)piperazin-2-yl)acetonitrile [Example 395]	61 nM	1.32 nM	–
C=CC(=O)N1CCN(c2nc(OC[C@@H]3CCCN3C)nc3c(F)c(-c4cccc5c4CC4CC54)ncc23)C[C@@H]1CC#N (single isomer, unassigned) [Example 873]	12 nM	0.79 nM	–
C=CC(=O)N1CCN(c2nc(OC[C@@H]3CCCN3C)nc3c(F)c(-c4cccc5c4CC4CC54)ccc23)C[C@@H]1CC#N (single isomer, unassigned) [Example 881]	3.4 nM	0.71 nM	–
C=C(F)C(=O)N1CCN(c2nc(OC[C@@H]3CCCN3C)nc3c(F)c(-c4cccc5c4CC4CC54)ccc23)C[C@@H]1CC#N (single isomer, unassigned) [Example 883]	10.6 nM	0.49 nM	–
C=CC(=O)N1CCN(c2nc(OC[C@@H]3CCCN3C)nc3c(F)c(-c4cccc5c4CCCC5)ncc23)C[C@@H]1CC#N [Example 1, 2-((S)-1-acryloyl-4-(8-fluoro-2-(((S)-1-methylpyrrolidin-2-yl)methoxy)-7-(5,6,7,8-tetrahydronaphthalen-1-yl)pyridino[4,3-d]pyrimidin-4-yl)piperazin-2-yl)acetonitrile]	–	20.3 nM	15 nM
C=CC(=O)N1CCN(c2nc(OCC34CCCN3CCC4)nc3c(F)c(-c4cccc5c4CCCC5)ncc23)C[C@@H]1CC#N [Example 2, (S)-2-(1-acryloyl-4-(8-fluoro-2-((tetrahydro-1H-pyrrolizin-7a(5H)-yl)methoxy)-7-(5,6,7,8-tetrahydronaphthalen-1-yl)pyridino[4,3-d]pyrimidin-4-yl)piperazin-2-yl)acetonitrile]	–	10.6 nM	1 nM
C=C(F)C(=O)N1CCN(c2nc(OCC34CCCN3CCC4)nc3c(F)c(-c4cccc5c4CCCC5)ncc23)C[C@@H]1CC#N [Example 3, (S)-2-(4-(8-fluoro-2-((tetrahydro-1H-pyrrolizin-7a(5H)-yl)methoxy)-7-(5,6,7,8-tetrahydronaphthalen-1-yl)pyridino[4,3-d]pyrimidin-4-yl)-1-(2-fluoroacryloyl)piperazin-2-yl)acetonitrile]	–	13.8 nM	3.5 nM
C=C(F)C(=O)N1CC[C@@H]2[C@H]1CN2c1nc(OC[C@@H]2CCCN2C)nc2c(F)c(-c3cccc4c3CCCC4)ncc12 [Example 10, 2-fluoro-1-((1R,5R)-6-(8-fluoro-2-(((S)-1-methylpyrrolidin-2-yl)methoxy)-7-(5,6,7,8-tetrahydronaphthalen-1-yl)pyridino[4,3-d]pyrimidin-4-yl)-2,6-diazabicyclo[3.2.0]hept-2-yl)prop-2-en-1-one]	–	8 nM	60 nM
C=CC(=O)N1CCN(c2nc(OC[C@@H]3CCCN3C)nc3c(F)c(-c4ccc(F)c5c4CCCC5)ncc23)C[C@@H]1CC#N [Example 17, 2-((S)-1-acryloyl-4-(8-fluoro-7-(4-fluoro-5,6,7,8-tetrahydronaphthalen-1-yl)-2-(((S)-1-methylpyrrolidin-2-yl)methoxy)pyridino[4,3-d]pyrimidin-4-yl)piperazin-2-yl)acetonitrile]	–	1.65 nM	30 nM
C=CC(=O)N1CCN(c2nc(OC[C@@H]3CCCN3C)nc3cc(-c4cccc5cccc(Cl)c45)ccc23)C[C@@H]1CC#N [Example 73, 2-((S)-1-acryloyl-4-(7-(8-chloronaphthalen-1-yl)-2-(((S)-1-methylpyrrolidin-2-yl)methoxy)quinazolin-4-yl)piperazin-2-yl)acetonitrile]	–	1.34 nM	15 nM
C=CC(=O)N1CCN(c2nc(OC[C@@H]3CCCN3C)nc3nc(-c4cccc5cccc(Cl)c45)ccc23)C[C@@H]1CC#N [Example 254, 2-((S)-1-acryloyl-4-(7-(8-chloronaphthalen-1-yl)-2-(((S)-1-methylpyrrolidin-2-yl)methoxy)pyridino[2,3-d]pyrimidin-4-yl)piperazin-2-yl)acetonitrile]	–	8.9 nM	30 nM
C=CC(=O)N1CCN(c2c(CC#N)c(OCC34CCCN3CCC4)nc3cc(-c4cccc5ccc(F)c(Cl)c45)c(F)cc23)C[C@@H]1CC#N [Example 621, (S)-4-(4-acryloyl-3-(cyanomethyl)piperazin-1-yl)-7-(8-chloro-7-fluoronaphthalen-1-yl)-6-fluoro-2-((tetrahydro-1H-pyrrolizin-7a(5H)-yl)methoxy)quinoline-3-acetonitrile]	–	–	330 nM
C=CC(=O)N1CCN(c2c(C#N)c(OC[C@@H]3CCCN3C)nc3cc(-c4cccc5c4CCCC5)c(Cl)cc23)C[C@@H]1CC#N [Example 622]	231 nM	–	–
C=CC(=O)N1CCN(C2=C(C#N)C(OC[C@@H]3CCCN3C)=NC3C=C(c4cccc5ccc(F)c(Cl)c45)C=CC23)C[C@@H]1CC#N (some centres unmarked) [Example 623]	–	–	200 nM
C=C(F)C(=O)N1CCN(C2=C(C#N)C(OC[C@@H]3CCCN3C)=NC3C=C(c4cccc5ccc(F)c(Cl)c45)C=CC23)C[C@@H]1CC#N (some centres unmarked) [Example 624]	–	–	800 nM
C=CC(=O)N1CCN(C2=C(C#N)C(OC[C@@H]3C[C@@H](F)CN3C)=NC3C=C(c4cccc5ccc(F)c(Cl)c45)C=CC23)C[C@@H]1CC#N (some centres unmarked) [Example 625]	–	–	850 nM
C=C(F)C(=O)N1CCN(C2=C(C#N)C(OC[C@@H]3C[C@@H](F)CN3C)=NC3C=C(c4cccc5ccc(F)c(Cl)c45)C=CC23)C[C@@H]1CC#N (some centres unmarked) [Example 626]	–	–	1500 nM
C=C(F)C(=O)N1CCN(C2=C(C#N)C(OCC34CCCN3CCC4)=NC3C=C(c4cccc5ccc(F)c(Cl)c45)C=CC23)C[C@@H]1CC#N (some centres unmarked) [Example 627]	–	–	120 nM
C=CC(=O)N1CCN(C2=C(C#N)C(OC[C@@]34CCCN3C[C@H](F)C4)=NC3C=C(c4cccc5ccc(F)c(Cl)c45)C=CC23)C[C@@H]1CC#N (some centres unmarked) [Example 628]	–	–	60 nM
C=C(F)C(=O)N1CCN(C2=C(C#N)C(OC[C@@]34CCCN3C[C@H](F)C4)=NC3C=C(c4cccc5ccc(F)c(Cl)c45)C=CC23)C[C@@H]1CC#N (some centres unmarked) [Example 629]	–	–	120 nM
C=CC(=O)N1CCN(c2nc(OCC3(CN4CCCC4)CC3)nc3c(F)c(-c4cccc5cccc(Cl)c45)ccc23)C[C@@H]1CC#N [Example 855, (S)-2-(1-acryloyl-4-(7-(8-chloronaphthalen-1-yl)-8-fluoro-2-((1-(pyrrolidin-1-ylmethyl)cyclopropyl)methoxy)quinazolin-4-yl)piperazin-2-yl)acetonitrile]	–	–	5.1 nM
C=C(F)C(=O)N1CCN(c2nc(OC[C@@H]3CCCN3C)nc3c(F)c(-c4cccc5c4CC4CC54)ccc23)C[C@@H]1CC#N (some centres unmarked) [Example 872]	8.4 nM	–	–
C=C(F)C(=O)N1CCN(c2nc(OC[C@@H]3CCCN3C)nc3c(F)c(-c4cccc5ccc(F)c(Cl)c45)ccc23)C[C@@H]1CC#N [Example 913]	–	–	3.6 nM
C=C(F)C(=O)N1CCN(c2nc(OC[C@@]34CCCN3C[C@H](F)C4)nc3c(OC4CC4)c(-c4cccc5ccc(F)c(Cl)c45)c(Cl)cc23)C[C@@H]1CC#N [Example 915, 2-((2S)-4-(6-chloro-7-(8-chloro-7-fluoronaphthalen-1-yl)-8-cyclopropoxy-2-((2R,7aS)-2-fluorotetrahydro-1H-pyrrolizin-7a(5H)-ylmethoxy)quinazolin-4-yl)-1-(2-fluoroacryloyl)piperazin-2-yl)acetonitrile]	–	–	33 nM
C=C(F)C(=O)N1CCN(c2nc(OC[C@@]34CCCN3C[C@H](F)C4)nc3c(OC4CC4)c(-c4cccc5cccc(Cl)c45)c(Cl)cc23)C[C@@H]1CC#N [Example 916]	–	–	37 nM
C=CC(=O)N1CCN(c2nc(OC[C@@]34CCCN3C[C@H](F)C4)nc3c(OC4CC4)c(-c4cccc5ccc(F)c(Cl)c45)c(Cl)cc23)C[C@@H]1CC#N [Example 920, 2-((2S)-1-acryloyl-4-(6-chloro-7-(8-chloro-7-fluoronaphthalen-1-yl)-8-cyclopropoxy-2-((2R,7aS)-2-fluorotetrahydro-1H-pyrrolizin-7a(5H-yl)methoxy)quinazolin-4-yl)piperazin-2-yl)acetonitrile]	–	–	31 nM
C=C(F)C(=O)N1CCN(c2nc(OC[C@@H]3CCCN3C)nc3c(OC4CC4)c(-c4cccc5ccc(F)c(Cl)c45)c(Cl)cc23)C[C@@H]1CC#N [Example 924]	–	–	49 nM
C=C(F)C(=O)N1CCN(c2nc(OC[C@@]34CCCN3C[C@H](F)C4)nc3c(OC4CC4)c(-c4c(C)ccc5[nH]ncc45)c(Cl)cc23)C[C@@H]1CC#N [Example 932, 2-((2S)-4-(6-chloro-8-cyclopropoxy-2-((2R,7aS)-2-fluorotetrahydro-1H-pyrrolizin-7a(5H)-ylmethoxy)-7-(5-methyl-1H-indazol-4-yl)quinazolin-4-yl)-1-(2-fluoroacryloyl)piperazin-2-yl)acetonitrile]	–	–	0.4 nM
C=CC(=O)N1CCN(c2nc(OC[C@@]34CCCN3C[C@H](F)C4)nc3c(OC4CC4)c(-c4c(C)ccc5[nH]ncc45)c(Cl)cc23)C[C@@H]1CC#N [Example 933]	–	–	0.3 nM
C=C(F)C(=O)N1CCN(c2nc(OC[C@@H]3CCCN3C)nc3c(F)c(-c4cccc5c4CC4CC54)c(O)cc23)C[C@@H]1CC#N (some centres unmarked) [Example 945]	–	–	155 nM
